The subject of data set [1] is Pseudomonas aeruginosa. Nature of the data set: Induction of swarming motility of Pseudomonas aeruginosa PW6886 harboring rhlA-E08::ISphoA/hah mutant at 5 to 100 uM after 24 hrs. In kind it is functional.
In data set [2] the test system is Pseudomonas aeruginosa. In words: Inhibition of biofilm formation in Pseudomonas aeruginosa PW6886 harboring rhlA-E08::ISphoA/hah mutant expressing EGFP at 20 to 340 uM after 48 hrs under shaking condition by confocal laser scanning microscopy. In kind it is functional.
The test system of data set [3] is Pseudomonas aeruginosa. In words: Induction of swarming motility of wild-type Pseudomonas aeruginosa PAO1 at 5 to 100 uM after 24 hrs. In kind it is functional.
Data set [4] concerns Pseudomonas aeruginosa. Nature of the data set: Induction of biofilm formation in Pseudomonas aeruginosa PW6886 harboring rhlA-E08::ISphoA/hah mutant expressing EGFP at 20 to 340 uM after 48 hrs under shaking condition by confocal laser scanning microscopy. In kind it is functional.
In data set [5] the test system is Pseudomonas aeruginosa. In words: Effect on biofilm formation in Pseudomonas aeruginosa PW6886 harboring rhlA-E08::ISphoA/hah mutant at 10 to 340 uM after 24 hrs under non-shaking condition by crystal-violet staining based assay. In kind it is functional.
The test system of data set [6] is Pseudomonas aeruginosa. Nature of the data set: Antibiofilm activity against Pseudomonas aeruginosa PW6886 harboring rhlA-E08::ISphoA/hah mutant preformed biofilms assessed as reduction in biofilm bacterial count at 20 to 340 uM preincubated for 24 hrs under non-shaking condition followed by second incubation for 1 hr after compound washout and subsequent compound addition and measured after 1 hr incubation under non-shaking condition by crystal-violet staining based assay. In kind it is functional.

Data set [7] has as its system Pseudomonas aeruginosa. Nature of the data set: Inhibition of biofilm formation in eGFP-fused Pseudomonas aeruginosa PW6886 harboring rhlA-E08::ISphoA/hah mutant at 340 uM by COMSTAT based quantification relative to control. In kind it is functional.
Data set [8] has as its system Pseudomonas aeruginosa. Nature of the data set: Induction of biofilm formation in eGFP-fused Pseudomonas aeruginosa PW6886 harboring rhlA-E08::ISphoA/hah mutant at 20 to 40 uM by COMSTAT based quantification relative to control. In kind it is functional.
The subject of data set [9] is Pseudomonas aeruginosa. In words: Antibiofilm activity against Pseudomonas aeruginosa PW6886 harboring rhlA-E08::ISphoA/hah mutant preformed biofilms assessed as reduction in biofilm bacterial count at 20 to 40 uM preincubated for 24 hrs under non-shaking condition followed by second incubation for 1 hr after compound washout and subsequent compound addition and measured after 1 hr incubation under non-shaking condition by crystal-violet staining based assay. In kind it is functional.

Data set [10] concerns Pseudomonas aeruginosa. Nature of the data set: Induction of biofilm formation in Pseudomonas aeruginosa PW6886 harboring rhlA-E08::ISphoA/hah mutant at 20 to 170 uM after 24 hrs under non-shaking condition by crystal-violet staining based assay. In kind it is functional.
Data set [11] relates to Pseudomonas aeruginosa. Nature of the data set: Induction of structured biofilm formation in eGFP-fused Pseudomonas aeruginosa PW6886 harboring rhlA-E08::ISphoA/hah mutant at 20 uM after 24 hrs under shaking condition by confocal laser scanning microscopy. In kind it is functional.
The subject of data set [12] is Pseudomonas aeruginosa. Nature of the data set: Inhibition of biofilm formation in Pseudomonas aeruginosa PW6886 harboring rhlA-E08::ISphoA/hah mutant at 340 uM under non-shaking condition after 24 hrs by crystal-violet staining based assay. In kind it is functional.
Data set [13] concerns Pseudomonas aeruginosa. In words: Induction of biofilm formation in eGFP-fused Pseudomonas aeruginosa PW6886 harboring rhlA-E08::ISphoA/hah mutant at 20 uM after 48 hrs under shaking condition by confocal laser scanning microscopy. In kind it is functional.
Data set [14] has as its system Pseudomonas aeruginosa. In words: Inhibition of biofilm formation in eGFP-fused Pseudomonas aeruginosa PW6886 harboring rhlA-E08::ISphoA/hah mutant at 340 uM after 24 hrs under shaking condition by confocal laser scanning microscopy. In kind it is functional.
Data set [15] has as its system Pseudomonas aeruginosa. Nature of the data set: Antibiofilm activity against Pseudomonas aeruginosa PW6886 harboring rhlA-E08::ISphoA/hah mutant preformed biofilms assessed as reduction in biofilm bacterial count at 340 uM preincubated for 24 hrs under non-shaking condition followed by second incubation for 1 hr after compound washout and subsequent compound addition and measured after 1 hr incubation under non-shaking condition by crystal-violet staining based assay. In kind it is functional.

Data set [16] has as its system Pseudomonas aeruginosa. In words: Induction of biofilm formation in Pseudomonas aeruginosa PW6886 harboring rhlA-E08::ISphoA/hah mutant expressing EGFP at 40 uM after 24 hrs under non-shaking condition by confocal laser scanning microscopy. In kind it is functional.
Data set [17] relates to Pseudomonas aeruginosa. In words: Inhibition of biofilm formation in eGFP-fused Pseudomonas aeruginosa PW6886 harboring rhlA-E08::ISphoA/hah mutant at 340 uM after 48 hrs under shaking condition by confocal laser scanning microscopy. In kind it is functional.
In data set [18] the test system is Pseudomonas aeruginosa. In words: Bactericidal activity against Pseudomonas aeruginosa PW6886 harboring rhlA-E08::ISphoA/hah mutant at 20 to 340 uM under shaking condition.
The test system of data set [19] is Pseudomonas aeruginosa. Nature of the data set: Induction of biofilm formation in Pseudomonas aeruginosa PW6886 harboring rhlA-E08::ISphoA/hah mutant expressing EGFP assessed as reduction in exopolymers covering the bottom of well at 20 to 85 uM after 24 hrs under shaking condition by confocal laser scanning microscopy. In kind it is functional.
The subject of data set [20] is Pseudomonas aeruginosa. In words: Induction of swarming motility of wild-type Pseudomonas aeruginosa PAO1 at 50 uM after 24 hrs. In kind it is functional.
Data set [21] deals with Pseudomonas aeruginosa. Nature of the data set: Induction of tendril formation in Pseudomonas aeruginosa PW6886 harboring rhlA-E08::ISphoA/hah mutant at 5 to 100 uM after 24 hrs. In kind it is functional.
Data set [22] relates to Pseudomonas aeruginosa. In words: Induction of tendril formation in Pseudomonas aeruginosa PAO1 at > 85 uM after 24 hrs. In kind it is functional.

The structures appear in SMILES notation. Activity calls are given as the source filed them. The calls are words filed in the database; no cut-off is given here.

With `CCCOCCCCCCCCO[C@@H]1O[C@H](CO)[C@@H](O[C@H]2O[C@H](CO)[C@@H](O)[C@H](O)[C@H]2O)[C@H](O)[C@H]1O`, the result in the data set on Pseudomonas aeruginosa [1], in the data set with Pseudomonas aeruginosa [3], with Pseudomonas aeruginosa [4], in the data set on Pseudomonas aeruginosa [5] and in the data set on Pseudomonas aeruginosa [6] was inactive. Also, the inhibition entry in the data set on Pseudomonas aeruginosa [2] is “inactive”.

On to `CC(C)CCCC(C)CCCC(C)CCO[C@@H]1O[C@H](CO)[C@@H](O[C@@H]2O[C@H](CO)[C@@H](O)[C@H](O)[C@H]2O)[C@H](O)[C@H]1O` (some centres not stated), for which the inhibition at 340 µM in the data set with Pseudomonas aeruginosa [7] is 80%. In the data set on Pseudomonas aeruginosa [8], the Activity is 10 - 60%. Moreover, the outcome in the data set on Pseudomonas aeruginosa [9] was inactive. In addition, the result with Pseudomonas aeruginosa [10], in the data set on Pseudomonas aeruginosa [11], in the data set with Pseudomonas aeruginosa [13], with Pseudomonas aeruginosa [15] and with Pseudomonas aeruginosa [16] was Active. Also, the inhibition entry in the data set on Pseudomonas aeruginosa [12], in the data set with Pseudomonas aeruginosa [14] and with Pseudomonas aeruginosa [17] was “Active” throughout.

`CC(C)CCCC(C)CCCC(C)CCO[C@@H]1O[C@H](CO)[C@@H](O[C@H]2O[C@H](CO)[C@@H](O)[C@H](O)[C@H]2O)[C@H](O)[C@H]1O` (some centres not stated): in the data set with Pseudomonas aeruginosa [7], 340 µM produced 80% inhibition. The Activity in the data set on Pseudomonas aeruginosa [8] was 10 - 60%; in the data set with Pseudomonas aeruginosa [18], “Non-Toxic”. In addition, the result in the data set with Pseudomonas aeruginosa [9] was inactive. In addition, the outcome in the data set on Pseudomonas aeruginosa [10], in the data set on Pseudomonas aeruginosa [11], in the data set on Pseudomonas aeruginosa [19], with Pseudomonas aeruginosa [13], with Pseudomonas aeruginosa [15] and in the data set on Pseudomonas aeruginosa [16] was Active. In addition, the inhibition result in the data set with Pseudomonas aeruginosa [12], with Pseudomonas aeruginosa [14] and in the data set with Pseudomonas aeruginosa [17] was “Active” each time.

Consider `CCCCCCOCCCCCO[C@@H]1O[C@H](CO)[C@@H](O[C@H]2O[C@H](CO)[C@@H](O)[C@H](O)[C@H]2O)[C@H](O)[C@H]1O`, for which the outcome in the data set with Pseudomonas aeruginosa [1], in the data set with Pseudomonas aeruginosa [3], in the data set on Pseudomonas aeruginosa [4], in the data set on Pseudomonas aeruginosa [5] and with Pseudomonas aeruginosa [6] was inactive. In the data set on Pseudomonas aeruginosa [18], the Activity entry is listed as “Non-Toxic”. The inhibition result in the data set on Pseudomonas aeruginosa [2] is “inactive”.

`O=C(c1ccccc1)c1ccc(COCCCCCCCCCCO[C@@H]2O[C@H](CO)[C@@H](O[C@H]3O[C@H](CO)[C@@H](O)[C@H](O)[C@H]3O)[C@H](O)[C@H]2O)cc1`: testing at 340 µM in the data set with Pseudomonas aeruginosa [7] gave an inhibition of 80%. Besides, the Activity is 10 - 60% in the data set with Pseudomonas aeruginosa [8] and “Non-Toxic” in the data set with Pseudomonas aeruginosa [18]. Also, the outcome in the data set with Pseudomonas aeruginosa [9] was inactive. The outcome in the data set on Pseudomonas aeruginosa [10], in the data set on Pseudomonas aeruginosa [11], in the data set with Pseudomonas aeruginosa [13], in the data set with Pseudomonas aeruginosa [15] and in the data set with Pseudomonas aeruginosa [16] was Active. Also, the inhibition entry in the data set on Pseudomonas aeruginosa [14] and in the data set with Pseudomonas aeruginosa [17] was “Active” each time.

As for `CCCCCCCCCCCCO[C@@H]1O[C@H](CO)[C@@H](O[C@H]2O[C@H](CO)[C@@H](O)[C@H](O)[C@H]2O)[C@H](O)[C@H]1O`, testing at 340 µM with Pseudomonas aeruginosa [7] gave an inhibition of 80%. The result in the data set on Pseudomonas aeruginosa [1], with Pseudomonas aeruginosa [20], in the data set with Pseudomonas aeruginosa [10], in the data set with Pseudomonas aeruginosa [11], with Pseudomonas aeruginosa [21] and with Pseudomonas aeruginosa [15] was Active. Besides, in the data set with Pseudomonas aeruginosa [22], the outcome was Active. The Activity with Pseudomonas aeruginosa [8] is 10 - 60%; in the data set on Pseudomonas aeruginosa [18] it was “Non-Toxic”. Moreover, the result with Pseudomonas aeruginosa [9] and in the data set with Pseudomonas aeruginosa [13] was inactive. Also, the inhibition entry in the data set with Pseudomonas aeruginosa [14] is “Active”. Besides, the inhibition result with Pseudomonas aeruginosa [17] is “inactive”.
